{
  "source": "patent US12151018B2",
  "about": "(priority 2019, dated 2024)",
  "test_system": "Caenorhabditis elegans",
  "details": "in vivo",
  "data": [
    {"substance": "argireline", "values": [
      {"measurement": "amount needed alone for the same level of effect as argireline 100 ppm plus Z. piperitum extract 500 ppm", "value": "100,000 ppm"}
    ]}
  ]
}
